Columns and labels:
[1] = system: antibodies in sera from SARS patients (sera 1a, 1b, 2, 6, 37, 62, London, SARS-yellow, SARS-green); format: binding, human; design: Binding of serum 6 to linear peptides of protein X1 of SARS-CoV Urbani / Binding of serum 37 to linear peptides of protein X1 of SARS-CoV Urbani / Binding of serum 6 to looped/cyclic peptide (PEPSCAN-ELISA) / Binding of serum 37 to looped/cyclic peptide (PEPSCAN-ELISA) / Binding of serum 37 to looped/cyclic peptides of protein X1 of SARS-CoV Urbani / Binding of serum 6 to linear peptides of protein X2 / Binding of serum 37 to linear peptides of protein X2 / Binding of serum 37 to looped/cyclic peptides of protein X2 of SARS-CoV Urbani / Binding of serum 6 to linear peptides of protein M of SARS-CoV Urbani / Binding of serum 37 to linear peptides of protein M of SARS-CoV Urbani / Binding of serum 6 to looped/cyclic peptides of protein M of SARS-CoV Urbani / Binding of serum 37 to looped/cyclic peptides of protein M of SARS-CoV Urbani / Binding of serum 6 to linear peptides of protein X3 of SARS-CoV Urbani / Binding of serum 37 to linear peptides of protein X3 of SARS-CoV Urbani / Binding of serum 37 to looped/cyclic peptides of protein X3 of SARS-CoV Urbani / Binding of serum 6 to linear peptides of protein X4 of SARS-CoV Urbani / Binding of serum 37 to linear peptides of protein X4 of SARS-CoV Urbani / Binding of serum 37 to looped/cyclic peptides of protein X4 of SARS-CoV Urbani / Binding of serum 6 to linear peptides of protein X5 of SARS-CoV Urbani / Binding of serum 37 to linear peptides of protein X5 of SARS-CoV Urbani / Binding of serum 37 to looped/cyclic peptides of protein X5 of SARS-CoV Urbani / Binding of serum 6 to linear peptides of protein N of SARS-CoV Urbani / Binding of serum 37 to linear peptides of protein N of SARS-CoV Urbani / Binding of serum 6 to linear peptide (PEPSCAN-ELISA) / Binding of serum 1a to looped/cyclic peptides of protein N of SARS-CoV Urbani / Binding of serum 1b to looped/cyclic peptides of protein N of SARS-CoV Urbani / Binding of serum 2 to looped/cyclic peptides of protein N of SARS-CoV Urbani / Binding of serum 6 to looped/cyclic peptides of protein N of SARS-CoV Urbani / Binding of serum 37 to looped/cyclic peptides of protein N of SARS-CoV Urbani / Binding of serum 62 to looped/cyclic peptides of protein N of SARS-CoV Urbani / Binding of serum London to looped/cyclic peptides of protein N of SARS-CoV Urbani / Binding of serum SARS-green to looped/cyclic peptides of protein N of SARS-CoV Urbani: unit not given here
[2] = system: control sera (pooled serum of ten healthy LUMC hospital workers; commercial negative donor pooled serum from the Dutch bloodbank); format: binding, human; design: Binding of Control serum LUMC to linear peptides / Binding of Control serum Blood-bank to linear peptides / Binding of Control serum LUMC to looped peptides / Binding of Control Serum Blood-Bank to Looped peptides / Binding of Control serum LUMC to linear peptides of the protein M of SARS-CoV Urbani / Binding of Control serum Blood-bank to linear peptides of the protein M of SARS-CoV Urbani / Binding of Control serum LUMC to looped peptides of the protein M of SARS-CoV Urbani / Binding of Control Serum Blood-Bank to Looped peptides of the protein M of SARS-CoV Urbani: unit not given here
[3] = system: rabbit serum obtained by immunizing a rabbit with the SARS-CoV strain Frankfurt 1; format: binding; design: Binding of a rabbit serum to linear peptides / Binding of a rabbit serum to looped peptides / Rabbit serum linear peptides / Rabbit serum looped peptides / Binding of a rabbit serum to linear peptides of protein N of SARS-CoV Urbani (Rabbit serum linear peptides) / Binding of a rabbit serum to looped/cyclic peptides of protein N of SARS-CoV Urbani (Rabbit serum looped peptides): unit not given here

Sequence	Binding of Control Serum Blood-Bank to Looped peptides [2]	Binding of Control serum Blood-bank to linear peptides [2]	Binding of Control serum LUMC to linear peptides [2]	Binding of Control serum LUMC to looped peptides [2]	Rabbit serum linear peptides [3]	Rabbit serum looped peptides [3]	Binding of serum 1a to linear peptides of protein X1 of SARS-CoV Urbani [1]	Binding of serum 1a to looped/cyclic peptide (PEPSCAN-ELISA) [1]	Binding of serum 1b to linear peptides of protein X1 of SARS-CoV Urbani [1]	Binding of serum 1b to looped/cyclic peptide (PEPSCAN-ELISA) [1]	Binding of serum 2 to linear peptides of protein X1 of SARS-CoV Urbani [1]	Binding of serum 2 to looped/cyclic peptide (PEPSCAN-ELISA) [1]	Binding of serum 6 to linear peptides of protein X1 of SARS-CoV Urbani [1]	Binding of serum 6 to looped/cyclic peptide (PEPSCAN-ELISA) [1]	Binding of serum 37 to linear peptides of protein X1 of SARS-CoV Urbani [1]	Binding of serum 37 to looped/cyclic peptide (PEPSCAN-ELISA) [1]	Binding of serum 62 to linear peptides of protein X1 of SARS-CoV Urbani [1]	Binding of serum 62 to looped/cyclic peptide (PEPSCAN-ELISA) [1]	Binding of serum London to linear peptides of protein X1 of SARS-CoV Urbani [1]	Binding of serum London to looped/cyclic peptide (PEPSCAN-ELISA) [1]	other results
SPLFLIVAALVFLIL	0.3	0.4	0.3	0.5	0.5	0.8															Binding of serum 1a to linear peptides of protein X4 of SARS-CoV Urbani [1]: 0.6; Binding of serum 1a to looped/cyclic peptides of protein X4 of SARS-CoV Urbani [1]: 0.6; Binding of serum 1b to linear peptides of protein X4 of SARS-CoV Urbani [1]: 0.2; Binding of serum 1b to looped/cyclic peptides of protein X4 of SARS-CoV Urbani [1]: 0.4; Binding of serum 2 to linear peptides of protein X4 of SARS-CoV Urbani [1]: 0.5; Binding of serum 2 to looped/cyclic peptides of protein X4 of SARS-CoV Urbani [1]: 0.7; Binding of serum 6 to linear peptides of protein X4 of SARS-CoV Urbani [1]: 0.2; Binding of serum 6 to looped/cyclic peptides of protein X4 of SARS-CoV Urbani [1]: 0.3; Binding of serum 37 to linear peptides of protein X4 of SARS-CoV Urbani [1]: 0.6; Binding of serum 37 to looped/cyclic peptides of protein X4 of SARS-CoV Urbani [1]: 0.7; Binding of serum 62 to linear peptides of protein X4 of SARS-CoV Urbani [1]: 0.6; Binding of serum 62 to looped/cyclic peptides of protein X4 of SARS-CoV Urbani [1]: 0.2; Binding of serum London to linear peptides of protein X4 of SARS-CoV Urbani [1]: 0.6; Binding of serum London to looped/cyclic peptides of protein X4 of SARS-CoV Urbani [1]: 0.4; Binding of serum SARS-green to linear peptides of protein X4 of SARS-CoV Urbani [1]: 0.5; Binding of serum SARS-green to looped/cyclic peptides of protein X4 of SARS-CoV Urbani [1]: 0.6; Binding of serum SARS-yellow to linear peptides of protein X4 of SARS-CoV Urbani [1]: 0.3; Binding of serum SARS-yellow to looped/cyclic peptides of protein X4 of SARS-CoV Urbani [1]: 0.3
LNKRWQLALYKGFQF	0.6	0.8	0.6	0.6			0.6	0.6	0.7	0.4	0.8	0.5	0.8	0.5	0.6	0.5	0.6	0.6	0.3	0.3	Binding of serum SARS-green to linear peptides of protein X1 of SARS-CoV Urbani [1]: 0.3; Binding of serum SARS-green to looped/cyclic peptide (PEPSCAN-ELISA) [1]: 0.1; Binding of serum SARS-yellow to linear peptides of protein X1 of SARS-CoV Urbani [1]: 0.3; Binding of serum SARS-yellow to looped/cyclic peptide (PEPSCAN-ELISA) [1]: 0.4; Recognition of the peptide by the rabbit serum [3]: recognized
ASLPFGWLVIGVAFL	0.4	0.6	0.6	0.6			0.7	0.5	0.5	0.3	0.6	0.4	0.5	0.2	0.6	0.3	0.6	0.4	0.3	0.2	Binding of serum SARS-green to linear peptides of protein X1 of SARS-CoV Urbani [1]: 0.2; Binding of serum SARS-green to looped/cyclic peptide (PEPSCAN-ELISA) [1]: 0.2; Binding of serum SARS-yellow to linear peptides of protein X1 of SARS-CoV Urbani [1]: 0.4; Binding of serum SARS-yellow to looped/cyclic peptide (PEPSCAN-ELISA) [1]: 0.3; Binding of a rabbit serum to linear peptides [3]: 1.4; Binding of a rabbit serum to looped peptides [3]: 0.3
SRVKNLNSSEGVPDL	0.5	0.9	0.7	0.7																	Binding of a rabbit serum to linear peptides [3]: 0.7; Binding of a rabbit serum to looped peptides [3]: 0.0
MADNGTITVEELKQL																					Binding of Control Serum Blood-Bank to Looped peptides of the protein M of SARS-CoV Urbani [2]: 0.4; Binding of Control serum Blood-bank to linear peptides of the protein M of SARS-CoV Urbani [2]: 0.5; Binding of Control serum LUMC to linear peptides of the protein M of SARS-CoV Urbani [2]: 0.6; Binding of Control serum LUMC to looped peptides of the protein M of SARS-CoV Urbani [2]: 0.6; Recognition of the peptide by the rabbit serum [3]: recognized
EILIIIMRTFRIAIW					0.5	0.3															Binding of Control Serum Blood-Bank to Looped peptides of the protein X3 of SARS-CoV Urbani [2]: 0.6; Binding of Control serum Blood-bank to linear peptides of the protein X3 of SARS-CoV Urbani [2]: 0.8; Binding of Control serum LUMC to linear peptides of the protein X3 of SARS-CoV Urbani [2]: 0.5; Binding of Control serum LUMC to looped peptides of the protein X3 of SARS-CoV Urbani [2]: 0.6

Source: patent US20070128217A1 (priority 2003, published 2007)
